{
  "source": "BindingDB's records for doi:10.1016/s0960-894x(00)00312-7",
  "about": "(Signal Pharmaceuticals, 2000)",
  "data": [
    {"target": "Protein c-Fos/Transcription factor Jun (Homo sapiens, UniProt P05412+P01100)", "sequence (P05412 whole entry)": "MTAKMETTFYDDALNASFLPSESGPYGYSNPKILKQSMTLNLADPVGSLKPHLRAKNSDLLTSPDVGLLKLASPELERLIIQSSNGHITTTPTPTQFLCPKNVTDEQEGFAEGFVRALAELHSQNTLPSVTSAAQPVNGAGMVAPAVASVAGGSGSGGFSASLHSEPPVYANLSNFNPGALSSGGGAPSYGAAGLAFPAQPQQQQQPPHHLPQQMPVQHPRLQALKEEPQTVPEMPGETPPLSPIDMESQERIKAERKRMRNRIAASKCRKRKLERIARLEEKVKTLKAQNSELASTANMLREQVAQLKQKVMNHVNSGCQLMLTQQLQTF", "sequence (P01100 whole entry)": "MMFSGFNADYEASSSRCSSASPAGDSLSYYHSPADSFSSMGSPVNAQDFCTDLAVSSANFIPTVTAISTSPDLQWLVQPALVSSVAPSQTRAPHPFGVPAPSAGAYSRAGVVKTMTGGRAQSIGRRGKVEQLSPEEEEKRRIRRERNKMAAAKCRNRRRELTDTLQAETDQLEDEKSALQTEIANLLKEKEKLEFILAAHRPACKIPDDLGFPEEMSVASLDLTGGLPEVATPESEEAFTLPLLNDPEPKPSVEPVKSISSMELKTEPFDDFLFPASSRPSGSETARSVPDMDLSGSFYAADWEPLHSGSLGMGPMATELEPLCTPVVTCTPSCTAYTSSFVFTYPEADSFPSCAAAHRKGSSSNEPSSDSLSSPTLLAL", "test": "Inhibition of AP-1 (activator protein-1) mediated transcriptional activation in Jurkat T-cells", "units": {"IC50": "nM"}, "values": [
      {"smiles": "CC1=CC(=O)N(Nc2nc(-c3cccs3)ncc2-c2cc(C)no2)C1=O", "note": "[3-methyl-1-(5-(3-methylisoxazol-5-yl)-2-(thiophen-2-yl)pyrimidin-4-ylamino)-1H-pyrrole-2,5-dione]", "IC50": 300},
      {"smiles": "CCOC(=O)c1cnc(Oc2ccccc2)nc1NN1C(=O)C=C(C)C1=O", "note": "[ethyl 4-(3-methyl-2,5-dioxo-2H-pyrrol-1(5H)-ylamino)-2-phenoxypyrimidine-5-carboxylate]", "IC50": 15000},
      {"smiles": "CCOC(=O)c1cnc(-c2ccc(C)s2)nc1NN1C(=O)C=C(C)C1=O", "note": "[4-(3-Methyl-2,5-dioxo-2,5-dihydro-pyrrol-1-ylamino)-2-(5-methyl-thiophen-2-yl)-pyrimidine-5-carboxylic acid ethyl ester]", "IC50": 200},
      {"smiles": "CC1=CC(=O)N(Nc2nc(-c3cccs3)ncc2C#N)C1=O", "note": "[4-(3-Methyl-2,5-dioxo-2,5-dihydro-pyrrol-1-ylamino)-2-thiophen-2-yl-pyrimidine-5-carbonitrile]", "IC50": 5000},
      {"smiles": "CCOC(=O)c1cnc(C)nc1NN1C(=O)C=C(C)C1=O", "note": "[2-Methyl-4-(3-methyl-2,5-dioxo-2,5-dihydro-pyrrol-1-ylamino)-pyrimidine-5-carboxylic acid ethyl ester]", "IC50": 16000},
      {"smiles": "CCOC(=O)c1cnc(-c2cccc([N+](=O)[O-])c2)nc1NN1C(=O)C=C(C)C1=O", "note": "[4-(3-Methyl-2,5-dioxo-2,5-dihydro-pyrrol-1-ylamino)-2-(3-nitro-phenyl)-pyrimidine-5-carboxylic acid ethyl ester]", "IC50": 7000},
      {"smiles": "CCOC(=O)c1cnc(-c2cccs2)nc1NN1C(=O)C=C(C)C1=O", "note": "[ethyl 4-(3-methyl-2,5-dioxo-2H-pyrrol-1(5H)-ylamino)-2-(thiophen-2-yl)pyrimidine-5-carboxylate]", "IC50": 20},
      {"smiles": "CCOC(=O)c1cnc(C(C)(C)C)nc1NN1C(=O)C=C(C)C1=O", "note": "[ethyl 2-tert-butyl-4-(3-methyl-2,5-dioxo-2H-pyrrol-1(5H)-ylamino)pyrimidine-5-carboxylate]", "IC50": 1000},
      {"smiles": "CCOC(=O)c1cnc(CC2=CCCCC2)nc1NN1C(=O)C=C(C)C1=O", "note": "[2-Cyclohex-1-enylmethyl-4-(3-methyl-2,5-dioxo-2,5-dihydro-pyrrol-1-ylamino)-pyrimidine-5-carboxylic acid ethyl ester]", "IC50": 2000},
      {"smiles": "CCOC(=O)c1cnc(-c2csc(C)n2)nc1NN1C(=O)C=C(C)C1=O", "note": "[4-(3-Methyl-2,5-dioxo-2,5-dihydro-pyrrol-1-ylamino)-2-(2-methyl-thiazol-4-yl)-pyrimidine-5-carboxylic acid ethyl ester]", "IC50": 8000},
      {"smiles": "CCOC(=O)c1cnc(CC)nc1NN1C(=O)C=C(C)C1=O", "note": "[2-Ethyl-4-(3-methyl-2,5-dioxo-2,5-dihydro-pyrrol-1-ylamino)-pyrimidine-5-carboxylic acid ethyl ester]", "IC50": 10000},
      {"smiles": "CCOC(=O)c1cnc(-c2cccs2)nc1N(C)N1C(=O)C=C(C)C1=O", "note": "[ethyl 4-(methyl(3-methyl-2,5-dioxo-2H-pyrrol-1(5H)-yl)amino)-2-(thiophen-2-yl)pyrimidine-5-carboxylate]", "IC50": 1000},
      {"smiles": "CCOC(=O)c1cnc(-c2ccncc2)nc1NN1C(=O)C=C(C)C1=O", "note": "[ethyl 4-(3-methyl-2,5-dioxo-2H-pyrrol-1(5H)-ylamino)-2-(pyridin-4-yl)pyrimidine-5-carboxylate]", "IC50": 6000},
      {"smiles": "CCOC(=O)c1cnc(-c2ccc(Cl)s2)nc1NN1C(=O)C=C(C)C1=O", "note": "[ethyl 2-(5-chlorothiophen-2-yl)-4-(3-methyl-2,5-dioxo-2H-pyrrol-1(5H)-ylamino)pyrimidine-5-carboxylate]", "IC50": 300},
      {"smiles": "CC1=CC(=O)N(Nc2nc(-c3cccs3)ncc2-c2nc(C)co2)C1=O", "note": "[3-methyl-1-(5-(4-methyloxazol-2-yl)-2-(thiophen-2-yl)pyrimidin-4-ylamino)-1H-pyrrole-2,5-dione]", "IC50": 200},
      {"smiles": "CCOC(=O)c1cnc(SC)nc1NN1C(=O)C=C(C)C1=O", "note": "[4-(3-Methyl-2,5-dioxo-2,5-dihydro-pyrrol-1-ylamino)-2-methylsulfanyl-pyrimidine-5-carboxylic acid ethyl ester]", "IC50": 200},
      {"smiles": "CCOC(=O)c1cnc(C(=O)c2ccco2)nc1NN1C(=O)C=C(C)C1=O", "note": "[ethyl 2-(furan-2-carbonyl)-4-(3-methyl-2,5-dioxo-2H-pyrrol-1(5H)-ylamino)pyrimidine-5-carboxylate]", "IC50": 700},
      {"smiles": "CCOC(=O)c1cnc(S(=O)(=O)c2ccccc2)nc1NN1C(=O)C=C(C)C1=O", "note": "[2-Benzenesulfonyl-4-(3-methyl-2,5-dioxo-2,5-dihydro-pyrrol-1-ylamino)-pyrimidine-5-carboxylic acid ethyl ester]", "IC50": 10000},
      {"smiles": "CCOC(=O)c1cnc(C(F)(F)F)nc1NN1C(=O)C(C)=C(C)C1=O", "note": "[ethyl 4-(3,4-dimethyl-2,5-dioxo-2H-pyrrol-1(5H)-ylamino)-2-(trifluoromethyl)pyrimidine-5-carboxylate]", "IC50": 10000},
      {"smiles": "CCOC(=O)c1cnc(CC)nc1N(C)N1C(=O)C=C(C)C1=O", "note": "[ethyl 2-ethyl-4-(methyl(3-methyl-2,5-dioxo-2H-pyrrol-1(5H)-yl)amino)pyrimidine-5-carboxylate]", "IC50": 10000},
      {"smiles": "CCOC(=O)c1cnc(-c2cnc3ccccc3c2)nc1NN1C(=O)C=C(C)C1=O", "note": "[ethyl 4-(3-methyl-2,5-dioxo-2H-pyrrol-1(5H)-ylamino)-2-(quinolin-3-yl)pyrimidine-5-carboxylate]", "IC50": 6000},
      {"smiles": "CC1=CC(=O)N(Nc2nc(-c3cccs3)ncc2C2=NCCO2)C1=O", "note": "[1-[5-(4,5-Dihydro-oxazol-2-yl)-2-thiophen-2-yl-pyrimidin-4-ylamino]-3-methyl-pyrrole-2,5-dione]", "IC50": 200},
      {"smiles": "CCOC(=O)c1cnc(-c2cccc(OC)c2)nc1NN1C(=O)C=C(C)C1=O", "note": "[ethyl 2-(3-methoxyphenyl)-4-(3-methyl-2,5-dioxo-2H-pyrrol-1(5H)-ylamino)pyrimidine-5-carboxylate]", "IC50": 5000},
      {"smiles": "CCOC(=O)c1cnc(-c2ccccc2)nc1NN1C(=O)C=C(C)C1=O", "note": "[4-(3-Methyl-2,5-dioxo-2,5-dihydro-pyrrol-1-ylamino)-2-phenyl-pyrimidine-5-carboxylic acid ethyl ester]", "IC50": 100},
      {"smiles": "CCOC(=O)c1cnc(-c2cc3ccccc3s2)nc1NN1C(=O)C=C(C)C1=O", "note": "[2-Benzo[b]thiophen-2-yl-4-(3-methyl-2,5-dioxo-2,5-dihydro-pyrrol-1-ylamino)-pyrimidine-5-carboxylic acid ethyl ester]", "IC50": 4000},
      {"smiles": "CCOC(=O)c1cnc(C(F)(F)F)nc1NN1C(=O)C=C(c2ccccc2)C1=O", "note": "[4-(2,5-Dioxo-3-phenyl-2,5-dihydro-pyrrol-1-ylamino)-2-trifluoromethyl-pyrimidine-5-carboxylic acid ethyl ester]", "IC50": 20000},
      {"smiles": "CCOC(=O)c1cnc(-c2cc(Cl)nc(Cl)c2)nc1NN1C(=O)C=C(C)C1=O", "note": "[ethyl 2-(2,6-dichloropyridin-4-yl)-4-(3-methyl-2,5-dioxo-2H-pyrrol-1(5H)-ylamino)pyrimidine-5-carboxylate]", "IC50": 2000},
      {"smiles": "CCOC(=O)c1cnc(Cc2ccccc2)nc1NN1C(=O)C=C(C)C1=O", "note": "[ethyl 2-benzyl-4-(3-methyl-2,5-dioxo-2H-pyrrol-1(5H)-ylamino)pyrimidine-5-carboxylate]", "IC50": 7000},
      {"smiles": "CCOC(=O)c1cnc(-n2nc(C)cc2C)nc1NN1C(=O)C=C(C)C1=O", "note": "[ethyl 2-(3,5-dimethyl-1H-pyrazol-1-yl)-4-(3-methyl-2,5-dioxo-2H-pyrrol-1(5H)-ylamino)pyrimidine-5-carboxylate]", "IC50": 10000},
      {"smiles": "CCOC(=O)c1cnc(-c2cc(Cl)cc(Cl)c2)nc1NN1C(=O)C=C(C)C1=O", "note": "[ethyl 2-(3,5-dichlorophenyl)-4-(3-methyl-2,5-dioxo-2H-pyrrol-1(5H)-ylamino)pyrimidine-5-carboxylate]", "IC50": 300},
      {"smiles": "CCOC(=O)c1cnc(-c2ccc(Cl)cc2)nc1NN1C(=O)C=C(C)C1=O", "note": "[ethyl 2-(4-chlorophenyl)-4-(3-methyl-2,5-dioxo-2H-pyrrol-1(5H)-ylamino)pyrimidine-5-carboxylate]", "IC50": 300},
      {"smiles": "CCOC(=O)c1cnc(C(F)(F)F)nc1NN1C(=O)C=CC1=O", "note": "[ethyl 4-(2,5-dioxo-2H-pyrrol-1(5H)-ylamino)-2-(trifluoromethyl)pyrimidine-5-carboxylate]", "IC50": 10000},
      {"smiles": "CCOC(=O)c1cnc(-c2ccc(OC)cc2)nc1NN1C(=O)C=C(C)C1=O", "note": "[2-(4-Methoxy-phenyl)-4-(3-methyl-2,5-dioxo-2,5-dihydro-pyrrol-1-ylamino)-pyrimidine-5-carboxylic acid ethyl ester]", "IC50": 900},
      {"smiles": "CCOC(=O)c1cnc(-c2ccsc2)nc1NN1C(=O)C=C(C)C1=O", "note": "[ethyl 4-(3-methyl-2,5-dioxo-2H-pyrrol-1(5H)-ylamino)-2-(thiophen-3-yl)pyrimidine-5-carboxylate]", "IC50": 100},
      {"smiles": "CCOC(=O)c1cnc(-c2ccc(F)cc2)nc1N(C)N1C(=O)C=C(C)C1=O", "note": "[2-(4-Fluoro-phenyl)-4-[methyl-(3-methyl-2,5-dioxo-2,5-dihydro-pyrrol-1-yl)-amino]-pyrimidine-5-carboxylic acid ethyl ester]", "IC50": 3000},
      {"smiles": "CCOC(=O)c1cnc(Sc2ccccc2)nc1NN1C(=O)C=C(C)C1=O", "note": "[ethyl 4-(3-methyl-2,5-dioxo-2,5-dihydro-1H-pyrrol-1-ylamino)-2-(phenylthio)pyrimidine-5-carboxylate]", "IC50": 1000},
      {"smiles": "CCOC(=O)c1cnc(-c2ccc(F)cc2)nc1NN1C(=O)C=C(C)C1=O", "note": "[ethyl 2-(4-fluorophenyl)-4-(3-methyl-2,5-dioxo-2H-pyrrol-1(5H)-ylamino)pyrimidine-5-carboxylate]", "IC50": 700},
      {"smiles": "CC1=CC(=O)N(Nc2nc(-c3cccs3)ncc2-c2nnn(C)n2)C1=O", "note": "[3-methyl-1-(5-(2-methyl-2H-tetrazol-5-yl)-2-(thiophen-2-yl)pyrimidin-4-ylamino)-1H-pyrrole-2,5-dione]", "IC50": 200},
      {"smiles": "CCOC(=O)c1cnc(-c2ccccc2)nc1N(C)N1C(=O)C=C(C)C1=O", "note": "[ethyl 4-(methyl(3-methyl-2,5-dioxo-2H-pyrrol-1(5H)-yl)amino)-2-phenylpyrimidine-5-carboxylate]", "IC50": 2000},
      {"smiles": "CCOC(=O)c1cnc(-c2cccc(Br)c2)nc1NN1C(=O)C=C(C)C1=O", "note": "[2-(3-Bromo-phenyl)-4-(3-methyl-2,5-dioxo-2,5-dihydro-pyrrol-1-ylamino)-pyrimidine-5-carboxylic acid ethyl ester]", "IC50": 700}
    ]}
  ]
}
